Key:
[1] = target: T1, acetylcholinesterase (Rattus norvegicus, UniProt P37136); test: biochemical; type: biochemical; settings: rat cortex enzyme; for acetylcholinesterase inhibitory activity inhibition ratio (%): final concentration 4×10−5 mol/L; for IC50: read-out: acetylcholinesterase inhibitory activity IC50 (nmol)
T1 construct: Acetylcholinesterase: rat cortex; from tissue; host or cells: rat cortex
T1 sequence (P37136 32-614): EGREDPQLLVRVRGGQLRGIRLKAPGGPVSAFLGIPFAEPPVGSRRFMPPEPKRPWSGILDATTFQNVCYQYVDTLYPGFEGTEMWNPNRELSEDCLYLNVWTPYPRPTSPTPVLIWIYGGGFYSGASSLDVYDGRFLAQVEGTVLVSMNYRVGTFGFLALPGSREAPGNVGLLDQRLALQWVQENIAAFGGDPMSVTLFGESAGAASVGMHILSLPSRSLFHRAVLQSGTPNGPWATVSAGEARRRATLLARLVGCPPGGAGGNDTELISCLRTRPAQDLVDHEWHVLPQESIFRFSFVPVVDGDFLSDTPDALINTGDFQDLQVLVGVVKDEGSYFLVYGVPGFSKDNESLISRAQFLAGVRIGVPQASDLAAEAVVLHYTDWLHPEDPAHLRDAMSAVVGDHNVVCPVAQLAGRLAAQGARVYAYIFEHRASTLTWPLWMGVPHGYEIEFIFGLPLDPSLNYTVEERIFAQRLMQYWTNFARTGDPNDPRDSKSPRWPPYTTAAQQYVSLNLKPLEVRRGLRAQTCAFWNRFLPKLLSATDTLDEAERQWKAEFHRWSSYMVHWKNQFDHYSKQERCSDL
Experimental: (§1) Sample processing: All samples were formulated as 10-2 mol/L solution by using 100% DMSO. 10-2 mol/L solution was used in microdetermination. 1 μL was taken to use in single tube experiment.
(§2) Solvent control: 0.4% DMSO was used in microdetermination. The inhibition ratio of the sample was obtained wherein the effect of solvent was deducted.
Acetylcholinesterase: rat cortex

[2] = target: T2, butyrylcholinesterase (Rattus norvegicus, UniProt Q9JKC1); test: inhibition of butyrylcholinesterase (rat serum); type: biochemical; settings: rat serum enzyme; final concentration 4×10−5 mol/L
T2 construct: Butyrylcholinesterase: rat serum; from tissue; host or cells: rat serum
T2 sequence (Q9JKC1 24-597): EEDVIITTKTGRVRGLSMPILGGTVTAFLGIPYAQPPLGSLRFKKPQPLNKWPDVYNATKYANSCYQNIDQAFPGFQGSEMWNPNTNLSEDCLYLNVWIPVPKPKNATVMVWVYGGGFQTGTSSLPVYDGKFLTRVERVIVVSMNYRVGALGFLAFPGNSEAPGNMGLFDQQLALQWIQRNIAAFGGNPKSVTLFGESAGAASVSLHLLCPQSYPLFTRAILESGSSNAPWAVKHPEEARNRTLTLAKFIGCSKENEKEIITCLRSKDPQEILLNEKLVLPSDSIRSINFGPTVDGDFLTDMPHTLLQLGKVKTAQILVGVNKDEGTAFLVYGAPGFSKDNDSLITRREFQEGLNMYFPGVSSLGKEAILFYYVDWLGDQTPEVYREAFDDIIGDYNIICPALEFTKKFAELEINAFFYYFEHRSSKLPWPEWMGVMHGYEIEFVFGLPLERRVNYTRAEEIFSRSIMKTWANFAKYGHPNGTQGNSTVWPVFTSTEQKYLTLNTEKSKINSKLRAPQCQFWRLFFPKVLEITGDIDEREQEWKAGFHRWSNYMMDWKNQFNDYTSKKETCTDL
Experimental: as §1, §2
Butyrylcholinesterase: rat serum

Structure (SMILES) | acetylcholinesterase inhibitory activity inhibition ratio (%) [1] [%] | butyrylcholinesterase inhibitory activity inhibition ratio (%) [2] [%] | IC50 [1] [nM]
COc1cc2c(cc1OC)C(=O)C(CC1(F)CC3CCC(C1)N3Cc1cccc(Br)c1)C2 (centres unmarked) [DC51, 2-((8-(3-bromobenzyl)-3-fluoro-8-azabicyclo[3.2.1]octan-3-yl)methyl)-5,6-dimethoxy-2,3-dihydro-1H-inden-1-one] | 85.08 | 15.26 | –
COc1cc2c(cc1OC)C(=O)C(CC1(F)CC3CCC(C1)N3Cc1ccccc1[N+](=O)[O-])C2 (centres unmarked) [DC52, 2-((3-fluoro-8-(2-nitrobenzyl)-8-azabicyclo[3.2.1]octan-3-yl)methyl)-5,6-dimethoxy-2,3-dihydro-1H-inden-1-one] | 93.80 | 0.73 | –
COc1cc2c(cc1OC)C(=O)C(CC1(F)CC3CCC(C1)N3Cc1cc(F)c(F)cc1F)C2 (centres unmarked) [DC57, 2-((3-fluoro-8-(2,4,5-trifluorobenzyl)-8-azabicyclo[3.2.1]octan-3-yl)methyl)-5,6-dimethoxy-2,3-dihydro-1H-inden-1-one] | 96.75 | 1017 | –
COc1cc2c(cc1OC)C(=O)C(CC1(F)CC3CCC(C1)N3Cc1ccccc1)C2 (centres unmarked) [DC59, 2-((8-benzyl-3-fluoro-8-azabicyclo[3.2.1]octan-3-yl)methyl)-5,6-dimethoxy-2,3-dihydro-1H-inden-1-one] | 86.12 | 69.03 | –
COc1cc2c(cc1OC)C(=O)C(CC1(F)CC3CCC(C1)N3Cc1ccccc1F)C2 (centres unmarked) [DC60, 2-((3-fluoro-8-(2-fluorobenzyl)-8-azabicyclo[3.2.1]octan-3-yl)methyl)-5,6-dimethoxy-2,3-dihydro-1H-inden-1-one] | 95.13 | 64.31 | –
COc1cc2c(cc1OC)C(=O)C(CC1(F)CC3CCC(C1)N3Cc1cccc(F)c1)C2 (centres unmarked) [DC61, 2-((3-fluoro-8-(3-fluorobenzyl)-8-azabicyclo[3.2.1]octan-3-yl)methyl)-5,6-dimethoxy-2,3-dihydro-1H-inden-1-one] | 96.75 | 61.04 | –
COc1cc2c(cc1OC)C(=O)C(CC1(F)CC3CCC(C1)N3Cc1c(F)c(F)c(F)c(F)c1F)C2 (centres unmarked) [DC68, 2-((3-fluoro-8-((perfluorophenyl)methyl)-8-azabicyclo[3.2.1]octan-3-yl)methyl)-5,6-dimethoxy-2,3-dihydro-1H-inden-1-one] | 93.80 | 4.0 | –
COc1cc2c(cc1OC)C(=O)C(CC1(F)CC3CCC(C1)N3Cc1cccc(C)c1)C2 (centres unmarked) [DC69, 2-((3-fluoro-8-(3-methylbenzyl)-8-azabicyclo[3.2.1]octan-3-yl)methyl)-5,6-dimethoxy-2,3-dihydro-1H-inden-1-one] | 97.49 | 58.86 | –
COc1cc2c(cc1OC)C(=O)C(CC1(F)CC3CCC(C1)N3Cc1cccc(C(F)(F)F)c1)C2 (centres unmarked) [DC70, 2-((3-fluoro-8-(3-(trifluoromethyl)benzyl)-8-azabicyclo[3.2.1]octan-3-yl)methyl)-5,6-dimethoxy-2,3-dihydro-1H-inden-1-one] | 76.51 | 0.09 | –
COc1cc2c(cc1OC)C(=O)C(CC1(F)CC3CCC(C1)N3Cc1cc(F)cc(F)c1F)C2 (centres unmarked) [DC75, 2-((3-fluoro-8-(2,3,5-trifluorobenzyl)-8-azabicyclo[3.2.1]octan-3-yl)methyl)-5,6-dimethoxy-2,3-dihydro-1H-inden-1-one] | 72.53 | 13.53 | –
CCOc1cc2c(cc1OCC)C(=O)C(CC1(F)CCN(Cc3ccccc3F)CC1)C2 (centres unmarked) [DC77, 5,6-diethoxy-2-((4-fluoro-1-(2-fluorobenzyl)piperidin-4-yl)methyl)-2,3-dihydro-1H-inden-1-one] | 97.09 | 72.0 | 0.9
CCCOc1cc2c(cc1OCCC)C(=O)C(CC1(F)CCN(Cc3ccccc3F)CC1)C2 (centres unmarked) [DC78, 2-((4-fluoro-1-(2-fluorobenzyl)piperidin-4-yl)methyl)-5,6-dipropoxy-2,3-dihydro-1H-inden-1-one] | 95.04 | 71.0 | 0.96
CCOCOc1cc2c(cc1OCOCC)C(=O)C(CC1(F)CCN(Cc3ccccc3F)CC1)C2 (centres unmarked) [DC79, 5,6-bis(ethoxymethoxy)-2-((4-fluoro-1-(2-fluorobenzyl)piperidin-4-yl)methyl)-2,3-dihydro-1H-inden-1-one] | 93.05 | 75.0 | 1.86
O=C1c2cc(OCC(F)(F)F)c(OCC(F)(F)F)cc2CC1CC1(F)CCN(Cc2ccccc2F)CC1 (centres unmarked) [DC103, 2-((4-fluoro-1-(2-fluorobenzyl)piperidin-4-yl)methyl)-5,6-bis(2,2,2-trifluoroethoxy)-2,3-dihydro-1H-inden-1-one] | 92.04 | 70.0 | 0.86
O=C1c2cc(OC(F)F)c(OC(F)F)cc2CC1CC1(F)CCN(Cc2ccccc2F)CC1 (centres unmarked) [DC104, 5,6-bis(difluoromethoxy)-2-((4-fluoro-1-(2-fluorobenzyl)piperidin-4-yl)methyl)-2,3-dihydro-1H-inden-1-one] | 98.02 | 71.8 | 0.76
O=C1c2cc(OCC(F)F)c(OCC(F)F)cc2CC1CC1(F)CCN(Cc2ccccc2F)CC1 (centres unmarked) [DC105, 5,6-bis(2,2-difluoroethoxy)-2-((4-fluoro-1-(2-fluorobenzyl)piperidin-4-yl)methyl)-2,3-dihydro-1H-inden-1-one] | 98.14 | 61.5 | 0.99
O=C1c2cc(Cl)c(Cl)cc2CC1CC1(F)CCN(Cc2ccccc2F)CC1 (centres unmarked) [DC106, 5,6-dichloro-2-((4-fluoro-1-(2-fluorobenzyl)piperidin-4-yl)methyl)-2,3-dihydro-1H-inden-1-one] | 70.05 | 88.0 | 500
COC(=O)C1CC(F)(CC2Cc3cc(OC)c(OC)cc3C2=O)CCN1Cc1ccccc1F (centres unmarked) [DC107, methyl 4-((5,6-dimethoxy-1-oxo-2,3-dihydro-1H-inden-2-yl)methyl)-4-fluoro-1-(2-fluorobenzyl)piperidine-2-carboxylate] | 76.03 | 75.6 | 23
COc1cc2c(cc1OC)C(=O)C(CC1(F)CCN(Cc3ccccc3F)C(C(=O)O)C1)C2 (centres unmarked) [DC108, 4-((5,6-dimethoxy-1-oxo-2,3-dihydro-1H-inden-2-yl)methyl)-4-fluoro-1-(2-fluorobenzyl)piperidine-2-carboxylic acid] | 82.49 | 71.58 | 9.96

Source: US20150284331A1 (priority 2012, published 2015)
